Experimental findings from US20250339396A1 (COSMAS THERAPEUTICS DEVELOPMENT INC., priority 2021, published 2025) are described below.

Test [1] deals with neuropathic (SNI) rats. Kind of test: Mechanical allodynia (von Frey, 50% paw withdrawal threshold) after spared nerve injury (SNI). In kind it is in vivo, rat. The conditions noted are these: 50 mg/kg per os. The procedure: Experiments were performed in male Sprague-Dawley rats (body weight: 250-300 g; Charles River Laboratories, St. Constant, QC, Canada) and adult male C57BL mice (body weight: 25-30 g; inbred). All animals were housed in small groups at a constant temperature of 22° C., with food and water provided ad libitum, and maintained under a 12 h light/dark cycle (lights on at 7:00 AM; lights off at 7:00 PM). All experimental procedures were conducted in accordance with the guidelines of the Canadian Council on Animal Care, and the protocols were approved by the Animal Care Committee at McGill University.
The different prodrug compounds as synthesized in Example 2 were tested and compared with Gabapentin (150 mg/kg, purchased from Sigma Aldrich, US). Prodrug was dissolved in saline, water, or a vehicle composed of 40% PEG400 and 60% water. Gabapentin was dissolved in a vehicle composed of 40% PEG400 and 60% water. All drugs (doses see the procedure descriptions below) were administrated per os (gavage) through a curved feeding tube (20 G for rats and 22 G for mice) at the beginning of the experiment unless otherwise specified. The dose of prodrug was chosen based on its pharmacokinetic properties, and the doses of Gabapentin were chosen from literature (Lopez-Canul, Palazzo et al. 2015).
Spared nerve injury was performed according to the method of (Decosterd I and Woolf CJ, 2000), see also Lopez-Canul et al., 2015. Rats and mice were anesthetized with isoflurane. The sciatic nerve was exposed at mid-thigh level distal to the trifurcation and freed of connective tissue; the three peripheral branches (sural, common peroneal, and tibial nerves) of the sciatic nerve were exposed without stretching nerve structures. Both tibial and common peroneal nerves were ligated and transected together. Tactile allodynia was absent in healthy (pre-surgery) and sham rats, and the mechanical withdrawal threshold in rats before SNI (pre-surgery) or sham was very close to the cutoff of dynamic plantar aesthesiometer (30 g) (Ugo Basile, Varese, Italy).
On day 14 after surgery, individual rats were placed in a test chamber (clear plastic wire mesh-bottomed cage) and allowed to acclimatize for 30 to 40 minutes. Von Frey filaments (Stoelting, Wood Dale, IL) were used to measure the 50% paw withdrawal threshold using the up-and-down method reported by {Chaplan, 1994 #399}. […] Lifting of the paw indicated a positive response and prompted the use of the […], whereas absence of paw withdrawal after 5 seconds indicated a negative response and prompted the next filament of increasing weight. This paradigm continued for 4 more measurements after the initial change of the behavioral response or until 5 consecutive negative or 4 consecutive positive responses. Based on observations on normal, unoperated, and sham-operated rats, the cutoff value of 15 g was selected as the upper limit for testing because stiffer hairs tended to raise the entire limb rather than to buckle, substantially changing the nature of the stimulus. The resulting scores were used to calculate the 50% response threshold using the formula proposed by Dixon. Allodynia was considered to be present when paw withdrawal thresholds were <4 g, and drugs raising this threshold were considered antiallodynic {Lopez-Canul, 2015}. Accordingly, all nerve ligated rats were verified to be allodynic, responding to a stimulus of <4 g. Rats without mechanical allodynia were excluded. After the determination of the basal response, allodynia was assessed at baseline, 0.5, 1, 1.5, 2, 2.5, 3, 4, 5, 6, 7, and 8 hours post-administration for each treatment described below. Groups of 5 to 6 rats per treatment were used, with each animal being used for 1 treatment only. […]

Test [2] concerns mice (C57/BL). Put plainly: Elevated Plus Maze Test (EPMT). In kind it is in vivo, mouse. Particulars: 150 mg/kg oral gavage. Details: key to closed arm time, difference between medians: Actual / closed arm time, difference between medians: Hodges-Lehmann: time in closed arms, in seconds (s); total distance, difference between medians: Actual / total distance, difference between medians: Hodges-Lehmann: unit not given here. As to the method:
Prodrug D 150 mg/kg was dissolved in tap water per oral gavage. The solution was prepared <30 seconds before administration (100 μL administration volume).
Behavioral tests performed 2.5-3 hours after drug administration. 8 mice (C57/BL) per group were used received vehicle or Prodrug D.
The EPMT was used to assess anxiety-like reactivity as induced suppression of exploratory behavior. The maze was made of white Plexiglass and consisted of two open arms (16×5 cm) opposite each other and two walled arms (16×5×12 cm) opposite each other. […] The mice were each placed on the central platform facing one of the open arms. EPMT behavior was recorded for 5 min under bright white light (100 W). Behavioral endpoints that were analyzed included time spent in the open vs closed arms, frequency of open arm vs closed arm entries, time spent (s) on the central platform. Anxiolytic agents are known to increase open arm visits and time in the open arm. Anxiogenics increase closed arm visits.
The percentage of the time spent in the open arms was calculated employing the formula […] where OA represents the time (s) spent in open arms and CA is the time (s) spent in the closed arms. Behavioral experiments were recorded and analyzed using an automated tracking system (Video track, View Point Life Science, Montreal, Canada) equipped with infrared lighting-sensitive CCD cameras (Bambico F R et al., 2010).

Setting [3] is: 2.5-3 hours after administration, 5 min EPMT.

As to `CC(=O)N(CCN(c1ccc(F)cc1)c1cccc(Br)c1)C(=O)OCOC(=O)CN.Cl` [Prodrug D, ((acetyl(2-((3-bromophenyl)(4-fluorophenyl)amino)ethyl)carbamoyl)oxy)methyl 2-aminoacetate hydrochloride], in test [1], the “AUC of withdrawal threshold vs. UCM924, t-test p” value is reported as 0.015 and the “Area Under the Curve (AUC) of withdrawal threshold vs. vehicle, Bonferroni p (FIG. 1B)” value is less than 0.0001. Also, in test [1] (0.5-8 h), the “withdrawal threshold over time vs. vehicle (two-way ANOVA, FIG. 1A)” value is “significantly increased the withdrawal threshold”. In addition, in test [1] (after 3, 4, 5 and 6 hours), the “withdrawal threshold vs. vehicle, Bonferroni post-hoc p” value is recorded as less than 0.0001. The “withdrawal threshold vs. vehicle, Bonferroni post-hoc p” value in test [1] (after 1 hour) amounted to 0.05. The “withdrawal threshold vs. precursor UCM924, Bonferroni post-hoc p” value in test [1] (hour 5) is on record as less than 0.001. Further, in test [1] (hour 6), the “withdrawal threshold vs. precursor UCM924, Bonferroni post-hoc p” value is on record as less than 0.0001. In test [2], the “overall effect in the EPMT” value is listed as “antianxiety effects”. In test [2] (setting [3]), the “closed arm time, median” value is on record as 222.8, n = 8; the “entries to open, median” value is reported as 11.00, n = 8; the “open arm time, median” value is on record as 56.30, n = 8; the “total distance, median” value was 1521, n = 8. In test [2] (VEH minus Prodrug D (column A)), the “closed arm time, difference between medians: Actual” value is listed as 25.75; the “entries to open, difference between medians: Actual” value is listed as −2; the “open arm time, difference between medians: Actual” value was −30.85; the “total distance, difference between medians: Actual” value was −2.35. Further, in test [2] (VEH vs. Prodrug D), the “closed arm time, difference between medians: Hodges-Lehmann” value was 29.45; the “entries to open, difference between medians: Hodges-Lehmann” value is −2.5; the “open arm time, difference between medians: Hodges-Lehmann” value was −25.9; the “total distance, difference between medians: Hodges-Lehmann” value was −116.6.
